The results in this text go back to patent US5416231A, “Prostaglandin I2 derivatives” (Asahi Glass Company, Ltd., priority 1990, dated 1995).

In brackets after ≈: the same amount, converted by molar mass. Structures can show the parent of a compound that is named as a salt.

Series [1] concerns platelet aggregation. The series can be described thus: Inhibitory activities on platelet aggregation, in vitro (ADP-induced). The series is classed as cell-based, guinea pig (Hartley strain). As to conditions: platelet rich plasma, 10 minutes incubation, adenosine diphosphate 1 micro M; for IC50: Cavia porcellus, Platelet, 10 min. As for the experimental part: (§1) From a guinea pig (Hartley strain), citric acid-added blood was obtained by a cardiac puncture. The blood was centrifuged at 120×g for 10 minutes, and the supernatant platelet rich plasma was separated. Measurement of platelet aggregation was conducted by means of an aggregometer in accordance with the Bone's nephelometry (G. V. R. Bone; Nature, vol 194, p 927, 1962). In a test in vitro, a test compound was added to the platelet rich plasma, and the mixture was incubated for 10 minutes. Then, adensoine diphosphate (1 micro M) was added to induce platelet aggregation. The degree of aggregation was represented by the maximum change in the light transmittance (the maximum aggregation rate) within 5 minutes after the addition of adenosine diphosphate, and the results are shown by a 50% inhibitory concentration. In a test ex vivo, a test compound was dissolved in ethanol, then suspended in a 0.5% tragacanth solution or in a 1% β-cyclodextrin solution and orally administered. From blood obtained by a cardiac puncture 30 minutes after the administration, a platelet rich plasma was prepared, and platelet aggregation was measured in the same manner as in the case of the test in vitro.

Series [2] concerns vasopressin-induced ST depression. The series can be described thus: Anti-anginal activities (Preventive activities on vasopressin-induced ST depression). The series is classed as in vivo, male rat (Donryou strain). The note with it: for Oral administration MED (minimum effective dose showing a significant preventive activity) / minimal effective dose: 30 minutes prior to vasopressin (0.2 IU/kg), oral; for minimal effective dose: Rattus norvegicus, read-out: Oral administration MED (minimum effective dose showing a significant preventive activity). As for the experimental part: Vasopressin (0.2 IU/kg) was administered from the femoral vein of a male rat (Donryou strain) anesthetized with pentobarbital, and the electrocardiogram was recorded for 5 seconds each at intervals of 30 seconds over a period of 5 minutes after the administration. The depression of ST-segment (the average of five pulses) was calculated on the electrocardiogram. The test compound was dissolved in ethanol and intravenously administered 2 minutes prior to the administration of vasopressin, or after being dissolved in ethanol, suspended in a 0.5% tragacanth solution or in a 1% β-cyclodextrin solution and orally administered 30 minutes prior to the administration of vasopressin. The differences of the ST depression between the test compound-administered group and the non-treated control group (5 animals for each group) were analysed by two-way layout analysis of variance.

Series [3] concerns platelet aggregation. The series can be described thus: Inhibitory activities on platelet aggregation, ex vivo after oral administration (ADP-induced). The series is classed as in vivo, guinea pig (Hartley strain). As to conditions: 30 minutes after administration; for minimal effective dose: Cavia porcellus, Platelet, 0.5 h, read-out: ex vivo MED (minimum effective dose showing significant inhibitory effects, P < 0.05). Here is the method: as §1

A further series deals with male mice of ddY strain. The series can be described thus: Acute toxicity, oral. The series is classed as in vivo. The note with it: 20 mg/kg, 1% β-cyclodextrin solution, 7 days. As for the experimental part:
To male mice of ddY strain weighing 25-32 g (five animals per each group), a predetermined dose of a test compound dissolved in a small amount of ethanol and then diluted with a 1% β-cyclodextrin solution, was orally administered, and the mortality was recorded over a period of 7 days after the administration.

[4] abbreviates: Solvent Y: 1% β-cyclodextrin solution.
Setting [5] is: Solvent X: 0.5% tragacanth solution.

One may read the IC50 as the concentration needed to halve the response being measured. A higher IC50 goes with lower potency. Regarding `CCCCC(C)C[C@H](O)/C=C/[C@@H]1[C@@H]2[C@H](C[C@H]1O)O/C(=C\C1CC(C(=O)O)C1)[C@@H]2F` (single isomer, unassigned) [Compound E-a, sodium salt of 2,4-methylene-7α-fluoro-17,20-dimethylPGI2], in the series with platelet aggregation [1], the IC50 amounted to 1.13 ng/mL. Moreover, in series [2] (setting [4]), the “Oral administration MED (minimum effective dose showing a significant preventive activity)” value is on record as 0.1 mg/kg.

`CCCCC(C)C[C@H](O)/C=C/[C@@H]1[C@@H]2[C@H](C[C@H]1O)O/C(=C\C1CC(C(=O)O)C1)[C@@H]2F` (single isomer, unassigned) [Compound E-b, sodium salt of 2,4-methylene-7α-fluoro-17,20-dimethylPGI2]: in the series on platelet aggregation [1], the “in vitro IC50” value was 1.70 ng/mL. Besides, the minimal effective dose with platelet aggregation [3] (setting [4]) was 0.3 mg/kg; in series [2] (setting [4]), 0.1 mg/kg. Also, the “Number of dead animals/Number of test animals” value with male mice of ddY strain is on record as 0/5.

The molecule `CCCCC(C)C[C@H](O)/C=C/[C@@H]1[C@@H]2[C@H](C[C@H]1O)O/C(=C\CC1CC1C(=O)O)[C@@H]2F` (stereo partly drawn) [Compound A, sodium salt of 2,3-methylene-7α-fluoro-17,20-dimethylPGI2] showed an IC50 in the series with platelet aggregation [1] of 18.3 ng/mL.

`CCCCC(C)C[C@H](O)/C=C/[C@@H]1[C@@H]2[C@H](C[C@H]1O)O/C(=C\C1CC(C(=O)OC)C1)[C@@H]2F` (stereo partly drawn) [Compound D-a, methyl ester of 2,4-methylene-7α-fluoro-17,20-dimethylPGI2]: half-maximal inhibition in the series with platelet aggregation [1] (IC50) was put at 2.88 ng/mL (≈ 6.78 nM). The minimal effective dose in the series on platelet aggregation [3] (setting [4]) amounted to 0.3 mg/kg.

`CCCCC(C)C[C@H](O)/C=C/[C@@H]1[C@@H]2[C@H](C[C@H]1O)O/C(=C\C1CC(C(=O)OC)C1)[C@@H]2F` (stereo partly drawn) [Compound D-b, methyl ester of 2,4-methylene-7α-fluoro-17,20-dimethylPGI2]: in the series on platelet aggregation [1], the “in vitro IC50” value stood at 1.50 ng/mL. The “ex vivo MED (minimum effective dose showing significant inhibitory effects, P < 0.05)” value in the series with platelet aggregation [3] (setting [4]) is on record as 0.3 mg/kg. The minimal effective dose in series [2] (setting [4]) was found to be 0.1 mg/kg. In addition, the “Number of dead animals/Number of test animals” value with male mice of ddY strain is given as 0/5.

For `CCCCC[C@H](O)/C=C/[C@@H]1[C@H]2C/C(=C/CCCC(=O)O)O[C@H]2C[C@H]1O` [Compound F, natural PGI2, reference compound], in the series with platelet aggregation [3] (setting [4]), the minimal effective dose was > 10 mg/kg.

On to “methyl ester of (1S*,3R*)-2,4-ethylene-7α-flouro-17,20-dimethylPGI2 [Compound C]”, for which, in the series on platelet aggregation [1], the “in vitro IC50” value is 5.50 ng/mL.

Consider “methyl ester of (1S*,3S*)-2,4-ethylene-7α-fluoro-17,20-dimethylPGI2 [Compound B-b]”, for which, in the series on platelet aggregation [1], the “in vitro IC50” value came out at 0.87 ng/mL. Moreover, the “ex vivo MED (minimum effective dose showing significant inhibitory effects, P < 0.05)” value in the series on platelet aggregation [3] (setting [5]) came to 0.3 mg/kg. In series [2] (intravenous, in ethanol, 2 minutes prior to vasopressin (0.2 IU/kg)), this molecule showed an Intravenous administration MED (minimum effective dose showing a significant preventive activity) of 0.001 mg/kg. Further, the “Oral administration MED (minimum effective dose showing a significant preventive activity)” value in series [2] (setting [5]) stood at 0.01 mg/kg.
